Laboratory results: patent publication US7495027B2, “3-aryl-4-hydroxyfuranone compounds and the human and animal health use thereof” (Wyeth, priority 2003, dated 2009)
pIC50: −log10 of the molar value. Converted amounts (≈) assume the structure as drawn. Like-named read-outs stand apart in the source and are kept apart here.

Experiments:
[1] = molecular target: E. coli Enopyruvyl-UPD-N-acetylglucosamine reductase, Mur B (Escherichia coli, UniProt P08373); test: biochemical; settings: (E) E. coli enzyme; for IC50: read-out: MurB IC50 (converted)
Sequence of E. coli Enopyruvyl-UPD-N-acetylglucosamine reductase, Mur B (P08373 whole entry): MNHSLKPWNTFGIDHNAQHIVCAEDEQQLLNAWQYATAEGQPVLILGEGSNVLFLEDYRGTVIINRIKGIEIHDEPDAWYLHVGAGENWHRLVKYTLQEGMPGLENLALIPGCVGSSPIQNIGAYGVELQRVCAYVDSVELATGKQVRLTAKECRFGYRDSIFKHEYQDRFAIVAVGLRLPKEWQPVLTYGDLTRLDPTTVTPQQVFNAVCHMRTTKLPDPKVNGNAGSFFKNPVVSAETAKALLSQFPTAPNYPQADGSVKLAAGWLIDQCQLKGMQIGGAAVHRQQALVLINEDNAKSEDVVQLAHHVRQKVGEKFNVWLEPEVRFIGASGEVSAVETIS

[2] = molecular target: T1, S. aureus Uridine-diphosphate-N-acetvimuramoyl: L-alanine lipase, MurC (Staphylococcus aureus, UniProt Q2FXJ0); test: biochemical; settings: for IC50: read-out: MurC IC50 (converted)
T1 sequence (Q2FXJ0 1-437): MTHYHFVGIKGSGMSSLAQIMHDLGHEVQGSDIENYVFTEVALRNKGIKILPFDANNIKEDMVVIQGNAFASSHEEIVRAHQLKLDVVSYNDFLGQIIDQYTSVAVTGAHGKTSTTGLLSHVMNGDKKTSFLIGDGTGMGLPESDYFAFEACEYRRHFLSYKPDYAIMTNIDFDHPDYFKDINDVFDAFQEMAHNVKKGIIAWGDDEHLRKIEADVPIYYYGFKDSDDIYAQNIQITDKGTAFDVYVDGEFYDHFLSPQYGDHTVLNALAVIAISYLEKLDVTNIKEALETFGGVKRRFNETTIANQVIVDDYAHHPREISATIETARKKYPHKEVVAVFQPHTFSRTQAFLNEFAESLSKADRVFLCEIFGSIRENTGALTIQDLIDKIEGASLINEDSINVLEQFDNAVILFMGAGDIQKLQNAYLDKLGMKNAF
Procedure, shortened: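 MurC assay: enzyme (E. coli 100 μg/mL, S. aureus 70 μg/mL stock) with L-Ala and test compound, pre-incubated 10 min at 23 °C, then UDP-MurNac added, 10 min at 37 °C. Phosphate released detected by malachite green–molybdate at 660 nm; IC50 by linear regression.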

staphylococci = test: Minimum inhibitory concentration, microdilution broth method, staphylococci; type: cell-based; settings: Mueller-Hinton broth, 18-22 hours at 35° C.; for MIC: Staphylococcus aureus
Procedure, shortened: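 Strep: Mueller-Hinton + 5% horse blood (LHB). Enterococci, staph: Mueller-Hinton broth alone. Microdilution format per NCCLS M7-A5 2000; isolates include resistant clinical strains.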

[3] = molecular target: T2, S. aureus Uridine-diphosphate-N-acetylmuramoyl-L-alanine: D-glutamate liease, MurD (Staphylococcus aureus, UniProt Q2FZ92); test: biochemical; settings: (S) S. aureus enzyme
T2 sequence (Q2FZ92 1-449): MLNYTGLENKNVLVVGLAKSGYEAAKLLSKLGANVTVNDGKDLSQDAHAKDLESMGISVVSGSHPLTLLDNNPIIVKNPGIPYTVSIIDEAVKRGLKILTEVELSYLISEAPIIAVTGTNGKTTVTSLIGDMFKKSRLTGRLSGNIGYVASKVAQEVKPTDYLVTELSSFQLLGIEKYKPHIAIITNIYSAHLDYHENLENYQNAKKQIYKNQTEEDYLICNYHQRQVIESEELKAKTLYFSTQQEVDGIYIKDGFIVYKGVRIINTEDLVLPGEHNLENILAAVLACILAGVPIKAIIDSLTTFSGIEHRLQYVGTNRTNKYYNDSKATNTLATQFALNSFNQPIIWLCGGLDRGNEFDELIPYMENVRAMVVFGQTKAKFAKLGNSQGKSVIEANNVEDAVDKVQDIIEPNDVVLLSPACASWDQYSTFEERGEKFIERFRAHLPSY
Procedure, shortened: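 Test solutions, 10 mg/mL stocks in DMSO, were brought to 100 μg/mL with 50 mM Tris/HCl (pH 8.5). Their inhibition of MurD, the enzyme of the fourth cell wall biosynthesis step, was measured.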

[4] = S. aureus GC 1131, read-out: MIC S. aureus GC 1131
[5] = S. aureus GC 4543, read-out: MIC S. aureus GC 4543

Compound | IC50 [1] [µM] | IC50 ([2]; (S) S. aureus enzyme) [µM] | MIC (staphylococci; [4]) [µg/mL] | MIC (staphylococci; [5]) [µg/mL] | pIC50 [3] | MurB IC50 [1] | pIC50 [2] | MurC IC50 ([2]; (S) S. aureus enzyme) | MIC S. aureus GC 1131 (staphylococci; S. aureus GC 1131) [µg/mL] | MIC S. aureus GC 4543 (staphylococci; S. aureus GC 4543) [µg/mL] | MurD IC50 [3]
O=C1O/C(=C\C2CCCCC2)C(O)=C1c1cccc(C(F)(F)F)c1 [Example 17] | > 70.9 | > 73.9 | 32 (≈ 94.6 µM) | > 128 | < 4.13 |  |  |  |  |  | 
COc1cccc(C2=C(O)/C(=C/c3cccc4ccccc34)OC2=O)c1 [Example 72] | 61 | > 72.6 | > 128 | > 128 | < 4.14 |  |  |  |  |  | 
O=C1O/C(=C\c2ccccc2-c2ccc(Cl)c(Cl)c2)C(O)=C1c1ccc(Cl)c(Cl)c1 [Example 141] |  | > 52.3 | 0.5 (≈ 1.05 µM) | 0.25 (≈ 0.523 µM) | 5.20 | 2 (E); 2 (S) μg/mL |  |  |  |  | 
Cc1cc(/C=C2\OC(=O)C(c3cccc(Cl)c3)=C2O)ccc1-c1ccccc1C(F)(F)F [Example 26] | 6.57 | 13.1 | 2 (≈ 4.38 µM) | 1 (≈ 2.19 µM) | 4.71 |  |  |  |  |  | 
O=C1O/C(=C\c2cccc(-c3cc(Cl)cc(Cl)c3)c2)C(O)=C1c1cc(Cl)cc(Cl)c1 [Example 136] |  | > 52.3 | 0.25 (≈ 0.523 µM) | 0.25 (≈ 0.523 µM) | 4.68 | 3 µg/mL |  |  |  |  | 
O=C1O/C(=C\c2ccc3ccccc3c2)C(O)=C1c1ccc2ccccc2c1 [Example 52] | > 68.6 | > 68.6 | 16 (≈ 43.9 µM) | 16 (≈ 43.9 µM) | 4.26 |  |  |  |  |  | 
COc1ccccc1-c1ccc(/C=C2\OC(=O)C(c3cccc(Cl)c3)=C2O)cc1C [Example 23] | 9.55 | 28.6 | 8 (≈ 19.1 µM) | 4 (≈ 9.55 µM) | 4.62 |  |  |  |  |  | 
COc1ccccc1-c1ccc(/C=C2\OC(=O)C(c3ccc(Cl)c(Cl)c3)=C2O)cc1OC [Example 20] | 6.39 | 32 | 4 (≈ 8.52 µM) | 4 (≈ 8.52 µM) | 4.39 |  |  |  |  |  | 
O=C1O/C(=C\c2cccc3ccccc23)C(O)=C1c1ccc(C(F)(F)F)cc1 [Example 71] | 26.2 |  | 8 (≈ 20.9 µM) | 8 (≈ 20.9 µM) | 4.20 |  | 4.28 |  |  |  | 
CN(C)c1ccc(/C=C2\OC(=O)C(c3ccc(C(F)(F)F)cc3)=C2O)c2ccccc12 [Example 81] | 54.1 | 37.6 | 8 (≈ 18.8 µM) | 8 (≈ 18.8 µM) | < 4.23 |  |  |  |  |  | 
Cc1cc(C=C2OC(=O)C(c3cc(Cl)cc(Cl)c3)=C2O)ccc1-c1ccccc1Cl [Example 31] |  |  |  |  |  | 2 (E); 2 (S) μg/mL |  | >25 (S) μg/mL | 0.5 (≈ 1.09 µM) | 0.25 (≈ 0.546 µM) | 10 (S) μg/mL
O=C1O/C(=C\C2CCCCC2)C(O)=C1c1ccc(Cl)cc1 [Example 15] | > 82 | > 82 | 64 (≈ 210 µM) | 64 (≈ 210 µM) | < 4.09 |  |  |  |  |  | 
O=C1O/C(=C\c2cccc3ccccc23)C(O)=C1c1cc(Cl)cc(Cl)c1 [Example 70] | 18.3 | 20.9 | 2 (≈ 5.22 µM) | 1 (≈ 2.61 µM) | 4.63 |  |  |  |  |  | 
O=C1O/C(=C\c2ccc3ccccc3c2)C(O)=C1c1ccc(Cl)cc1 [Example 54] | 22.9 | 31.5 | 8 (≈ 22.9 µM) | 16 (≈ 45.9 µM) | < 4.14 |  |  |  |  |  | 
Cc1cc(/C=C2\OC(=O)C(c3cc(Cl)cc(Cl)c3)=C2O)ccc1-c1ccccc1C(F)(F)F [Example 27] | 6.11 | > 50.9 | 0.5 (≈ 1.02 µM) | 0.5 (≈ 1.02 µM) | 4.31 |  |  |  |  |  | 
O=C1O/C(=C\c2ccc(-c3ccccc3)cc2)C(O)=C1c1cccs1 [Example 144] | 57.7 | 28.9 | 16 (≈ 46.2 µM) | 16 (≈ 46.2 µM) | 4.24 |  |  |  |  |  | 
